A value given as a limit tells only on which side of the number the result lay.

In one experiment the target is human NaV 1.8 (Homo sapiens, UniProt Q9Y5Y9). The experiment is described as follows: E-VIPR assay detecting and measuring NaV inhibition properties. Particulars: HEK cells expressing truncated human NaV 1.8; in the presence of human serum (compound numbers followed by *); read-out: IC50 in the E-VIPR Assay, performed in the presence of human serum. The experiment is classed as cell-based. In a few lines: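 Membrane potential was followed by coumarin/oxonol FRET during electrical field stimulation of matrigel-seeded HEK cells carrying truncated human NaV1.8 plus KIR2.1. Dosing used 11 points, 3-fold steps, top 300 nM final, 0.625% DMSO, with or without 25% human serum.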
Chain of human NaV 1.8 (Q9Y5Y9 126-399 limits assumed): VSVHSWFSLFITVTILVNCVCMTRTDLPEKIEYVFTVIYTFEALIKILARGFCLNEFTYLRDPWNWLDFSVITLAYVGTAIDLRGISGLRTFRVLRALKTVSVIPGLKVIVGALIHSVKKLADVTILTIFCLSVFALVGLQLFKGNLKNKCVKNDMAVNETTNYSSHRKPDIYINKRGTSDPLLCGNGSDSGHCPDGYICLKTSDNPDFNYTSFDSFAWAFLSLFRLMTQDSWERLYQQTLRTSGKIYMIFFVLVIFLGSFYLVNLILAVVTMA
Chain of human NaV 1.8 (Q9Y5Y9 660-890 limits assumed): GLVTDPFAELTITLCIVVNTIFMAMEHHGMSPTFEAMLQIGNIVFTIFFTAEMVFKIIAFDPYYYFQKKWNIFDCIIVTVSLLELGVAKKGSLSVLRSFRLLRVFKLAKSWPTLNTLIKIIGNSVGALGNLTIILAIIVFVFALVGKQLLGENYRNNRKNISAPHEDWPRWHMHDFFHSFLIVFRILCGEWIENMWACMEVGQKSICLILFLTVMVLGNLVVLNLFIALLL
Chain of human NaV 1.8 (Q9Y5Y9 1148-1722 limits assumed): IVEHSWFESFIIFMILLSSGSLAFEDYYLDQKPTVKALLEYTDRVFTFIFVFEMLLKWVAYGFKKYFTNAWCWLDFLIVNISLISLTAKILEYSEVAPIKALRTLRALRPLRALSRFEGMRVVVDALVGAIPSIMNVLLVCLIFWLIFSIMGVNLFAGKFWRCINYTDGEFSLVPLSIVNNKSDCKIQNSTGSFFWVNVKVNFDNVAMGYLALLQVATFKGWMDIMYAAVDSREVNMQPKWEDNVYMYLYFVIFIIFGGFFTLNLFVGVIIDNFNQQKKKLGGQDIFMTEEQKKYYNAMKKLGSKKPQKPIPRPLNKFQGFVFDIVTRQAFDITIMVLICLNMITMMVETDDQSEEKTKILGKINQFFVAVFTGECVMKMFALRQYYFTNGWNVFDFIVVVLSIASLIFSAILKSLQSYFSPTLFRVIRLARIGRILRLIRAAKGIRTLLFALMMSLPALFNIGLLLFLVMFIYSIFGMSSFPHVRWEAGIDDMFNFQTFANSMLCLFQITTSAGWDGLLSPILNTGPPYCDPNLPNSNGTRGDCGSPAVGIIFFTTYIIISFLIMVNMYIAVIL
Consider `C[C@H]1[C@@H](c2ccc(F)c(F)c2OC(F)F)[C@H](C(=O)Nc2cc(S(C)(=O)=O)c[n+]([O-])c2)O[C@@]1(C)C(F)(F)F` (single isomer, unassigned) [Compound 88], for which the concentration for half-maximal inhibition (IC50) fell in the range of 100 to 1000 nM.
As to `COc1c([C@H]2[C@H](C(=O)Nc3ccnc(C(CO)OC)c3)O[C@@](C)(C(F)(F)F)[C@H]2C)ccc(F)c1F` (single isomer, unassigned) [Compound 249, rel-(2R*,3S*,4S*,5R*)-3-(3,4-difluoro-2-methoxyphenyl)-N-(2-(2-hydroxy-1-methoxyethyl)pyridin-4-yl)-4,5-dimethyl-5-(trifluoromethyl)tetrahydrofuran-2-carboxamide], the 50% inhibitory concentration (IC50) is less than 10 nM.
The same measure, in the same setting: the figure for `COc1c([C@H]2[C@H](C(=O)Nc3ccnc([S+](C)[O-])c3)O[C@@](C)(C(F)(F)F)[C@H]2C)ccc(F)c1F` (single isomer, unassigned) [Compound 9] is less than 10 nM; for `COc1c(C2CC(C)(C(F)(F)F)OC2C(=O)Nc2ccnc(C(O)C(C)O)c2)ccc(F)c1F` (single isomer, unassigned) [Compound 694] it is 10 to 100 nM; for `C[C@@H]1[C@H](c2ccc(F)c(F)c2OC(F)F)[C@@H](C(=O)Nc2cccnc2)O[C@]1(C)C(F)(F)F` (single isomer, unassigned) [Compound 66] it is not below 1000 nM.

Staying with this experiment, now noted: HEK cells expressing truncated human NaV 1.8; no human serum; read-out: IC50 in the E-VIPR Assay.
On to `CCOc1c([C@H]2[C@H](C(=O)Nc3ccnc(S(C)(=N)=O)c3)O[C@@](C)(C(F)(F)F)[C@H]2C)ccc(F)c1C` (single isomer, unassigned) [Compound 128], for which the 50% inhibitory concentration (IC50) was less than 10 nM.
On to `COc1c([C@H]2[C@H](C(=O)Nc3c(C)ncn3C)O[C@@](C)(C(F)(F)F)[C@H]2C)ccc(F)c1F` [Compound 319, (2R,3S,4S,5R)-3-(3,4-difluoro-2-methoxyphenyl)-N-(1,4-dimethyl-1H-imidazol-5-yl)-4,5-dimethyl-5-(trifluoromethyl)-tetrahydrofuran-2-carboxamide], for which the concentration for half-maximal inhibition (IC50) is not below 1000 nM.
Still for that read-out and setting: the figure for `COc1c([C@H]2[C@H](C(=O)Nc3ccnc(N4C[C@H]5CC[C@H](N5)C4=O)c3)O[C@@](C)(C(F)(F)F)[C@H]2C)ccc(F)c1F` (single isomer, unassigned) [Compound 493, rel-(2R*,3S*,4S*,5R*)-3-(3,4-difluoro-2-methoxyphenyl)-4,5-dimethyl-N-(2-((1S,5R)-2-oxo-3,8-diazabicyclo[3.2.1]octan-3-yl)pyridin-4-yl)-5-(trifluoromethyl)tetrahydrofuran-2-carboxamide] is 10 to 100 nM; for `COc1c(C2C(C(=O)Nc3cccc(P(C)(C)=O)c3)OC(C)(C(F)(F)F)C2C)ccc(F)c1F` (single isomer, unassigned) [Compound 41, 3-(3,4-difluoro-2-methoxy-phenyl)-N-(3-dimethylphosphorylphenyl)-4,5-dimethyl-5-(trifluoromethyl)tetrahydrofuran-2-carboxamide] it is not below 1000 nM.
The same measure, in the same setting: next, `COc1c([C@H]2[C@H](C(=O)Nc3ccnc(C(O)CO)c3)O[C@@](C)(C(F)(F)F)[C@H]2C)ccc(F)c1C` (single isomer, unassigned) [Compound 135]: less than 10 nM.
As to `COc1c([C@H]2[C@H](C(=O)Nc3ccnc(N4C[C@H](C)NCC4=O)c3)O[C@@](C)(C(F)(F)F)[C@H]2C)ccc(F)c1F` [Compound 478, (2R,3S,4S,5R)-3-(3,4-difluoro-2-methoxyphenyl)-4,5-dimethyl-N-(2-((S)-5-methyl-2-oxopiperazin-1-yl)pyridin-4-yl)-5-(trifluoromethyl)tetrahydrofuran-2-carboxamide], the IC50 lay in the range of 10 to 100 nM.
On the same count and under the same terms, next, `COCC(O)c1cc(NC(=O)[C@@H]2O[C@@](C)(C(F)(F)F)[C@@H](C)[C@H]2c2ccc(F)c(F)c2OC)ccn1` (single isomer, unassigned) [Compound 222, rel-(2R*,3S*,4S*,5R*)-3-(3,4-difluoro-2-methoxyphenyl)-N-(2-(1-hydroxy-2-methoxyethyl)pyridin-4-yl)-4,5-dimethyl-5-(trifluoromethyl)tetrahydrofuran-2-carboxamide]: less than 10 nM; `COc1c(C2C(C(=O)Nc3ccnc(S(C)(=N)=O)c3)OC(C)(C(F)(F)F)C2C)ccc(F)c1F` (single isomer, unassigned) [Compound 54, 3-(3,4-difluoro-2-methoxy-phenyl)-4,5-dimethyl-N-[2-(methylsulfonimidoyl)-4-pyridyl]-5-(trifluoromethyl)tetrahydrofuran-2-carboxamide]: less than 10 nM.
On to `COc1c([C@H]2[C@H](C(=O)NC(C)c3ccc(C)c(F)c3)O[C@@](C)(C(F)(F)F)[C@H]2C)ccc(F)c1F` (stereo partly drawn) [Compound 308, (2R,3S,4S,5R)-3-(3,4-difluoro-2-methoxyphenyl)-N-(1-(3-fluoro-4-methylphenyl)ethyl)-4,5-dimethyl-5-(trifluoromethyl)tetrahydrofuran-2-carboxamide], for which the half-maximal inhibitory concentration (IC50) was not below 1000 nM.
As for `Cc1nn(C(F)F)cc1NC(=O)[C@@H]1O[C@@](C)(C(F)(F)F)[C@@H](C)[C@H]1c1ccc(F)c(F)c1CN1CC(O)C1` (racemic) [Compound 673, rac-(2R,3S,4S,5R)-3-(3,4-difluoro-2-((3-hydroxyazetidin-1-yl)methyl)phenyl)-N-(1-(difluoromethyl)-3-methyl-1H-pyrazol-4-yl)-4,5-dimethyl-5-(trifluoromethyl)tetrahydrofuran-2-carboxamide], the half-inhibitory concentration (IC50) lay within 100 to 1000 nM.
Turning to `CCS(=O)(=O)c1cc(NC(=O)[C@@H]2O[C@@](C)(C(F)(F)F)[C@@H](C)[C@H]2c2ccc(F)c(F)c2OC(F)F)ccn1` (single isomer, unassigned) [Compound 90], the 50% inhibitory concentration (IC50) is less than 10 nM.
The same measure, in the same setting: next, `COc1c(C2C(C(=O)Nc3ccn(C)c(=O)c3)OC(C)(C(F)(F)F)C2C)ccc(F)c1F` (single isomer, unassigned) [Compound 28, 3-(3,4-difluoro-2-methoxy-phenyl)-4,5-dimethyl-N-(1-methyl-2-oxo-4-pyridyl)-5-(trifluoromethyl)tetrahydrofuran-2-carboxamide]: less than 10 nM; `C[C@H]1[C@@H](c2ccc(F)c(F)c2OCC2CC(F)(F)C2)[C@H](C(=O)Nc2ccnc(CO)c2)O[C@@]1(C)C(F)(F)F` [Compound 644, (2R,3S,4S,5R)-3-(2-((3,3-difluorocyclobutyl)methoxy)-3,4-difluorophenyl)-N-(2-(hydroxymethyl)pyridin-4-yl)-4,5-dimethyl-5-(trifluoromethyl)tetrahydrofuran-2-carboxamide]: 10 to 100 nM; `COCCOc1cc(NC(=O)C2OC(C)(C(F)(F)F)C(C)C2c2ccc(F)c(F)c2OC)cnn1` (single isomer, unassigned) [Compound 33, 3-(3,4-difluoro-2-methoxy-phenyl)-N-[6-(2-methoxyethoxy)pyridazin-4-yl]-4,5-dimethyl-5-(trifluoromethyl)tetrahydrofuran-2-carboxamide]: not below 1000 nM.
In the case of `C[C@@H](CO)COc1c([C@H]2[C@H](C(=O)Nc3ccc(C(N)=O)nc3)O[C@@](C)(C(F)(F)F)[C@H]2C)ccc(F)c1F` [Compound 616, 5-((2R,3S,4S,5R)-3-(3,4-difluoro-2-((S)-3-hydroxy-2-methylpropoxy)phenyl)-4,5-dimethyl-5-(trifluoromethyl)tetrahydrofuran-2-carboxamido)picolinamide], the 50% inhibitory concentration (IC50) lay within 100 to 1000 nM.
Take `COc1c([C@H]2[C@H](C(=O)Nc3ccnc(C4(N)CCOC4)c3)O[C@@](C)(C(F)(F)F)[C@H]2C)ccc(F)c1F` (single isomer, unassigned) [Compound 347, rel-(2R*,3S*,4S*,5R*)-N-(2-(3-aminotetrahydrofuran-3-yl)pyridin-4-yl)-3-(3,4-difluoro-2-methoxyphenyl)-4,5-dimethyl-5-(trifluoromethyl)-tetrahydrofuran-2-carboxamide]: the IC50 lay in the range of 10 to 100 nM.
As for `C[C@H]1[C@@H](c2ccc(F)c(F)c2OCCO)[C@H](C(=O)Nc2ccon2)O[C@@]1(C)C(F)(F)F` [Compound 556, (2R,3S,4S,5R)-3-(3,4-difluoro-2-(2-hydroxyethoxy)phenyl)-N-(isoxazol-3-yl)-4,5-dimethyl-5-(trifluoromethyl)tetrahydrofuran-2-carboxamide], the IC50 lay within 100 to 1000 nM.
Still for that read-out and setting: the figure for `COc1c([C@H]2[C@H](C(=O)Nc3ccnc(S(N)(=O)=O)c3)O[C@@](C)(C(F)(F)F)[C@H]2C)ccc(F)c1F` [Compound 188, (2R,3S,4S,5R)-3-(3,4-difluoro-2-methoxyphenyl)-4,5-dimethyl-N-(2-sulfamoylpyridin-4-yl)-5-(trifluoromethyl)tetrahydrofuran-2-carboxamide] is less than 10 nM.
Same read-out and setting: the figure for `CNC(c1cc(NC(=O)[C@@H]2O[C@@](C)(C(F)(F)F)[C@@H](C)[C@H]2c2ccc(F)c(F)c2OC)ccn1)C(C)(C)OC` (single isomer, unassigned) [Compound 344, rel-(2R*,3S*,4S*,5R*)-3-(3,4-difluoro-2-methoxyphenyl)-N-(2-(2-methoxy-2-methyl-1-(methylamino)propyl)pyridin-4-yl)-4,5-dimethyl-5-(trifluoromethyl)-tetrahydrofuran-2-carboxamide] is less than 10 nM.
On the same count and under the same terms, next, `CCOc1c([C@@H]2[C@@H](C(=O)Nc3ccn4nnnc4c3)O[C@](C)(C(F)(F)F)[C@@H]2C)ccc(F)c1C` (stereo in doubt) [Compound 122, rel-(2S,3R,4R,5S)-3-(2-ethoxy-4-fluoro-3-methylphenyl)-4,5-dimethyl-N-(tetrazolo[1,5-a]pyridin-7-yl)-5-(trifluoromethyl)tetrahydrofuran-2-carboxamide]: 100 to 1000 nM; `C[C@H]1[C@@H](c2ccc(F)c(F)c2OCCO)[C@H](C(=O)Nc2cncnc2)O[C@@]1(C)C(F)(F)F` [Compound 539, (2R,3S,4S,5R)-3-(3,4-difluoro-2-(2-hydroxyethoxy)phenyl)-4,5-dimethyl-N-(pyrimidin-5-yl)-5-(trifluoromethyl)tetrahydrofuran-2-carboxamide]: 10 to 100 nM.

For the origin of these results see patent US20240368135A1 (VERTEX PHARMACEUTICALS INCORPORATED, priority 2021, published 2024).
